Source: patent US7012093B2, “Multiple fluorescent natural dye compound from a marine organism and method of use thereof” (Council of Scientific & Industrial Research, priority 2001, dated 2006)
Entries after “also recorded” stand apart in the source; their conditions may differ.

Assays:
[1] = Stability of the compound cum dye at the sub zero temperatures; type: physicochemical
From the text: In yet another embodiment stability of the compound cum Dye at the sub Zero temperatures is seen. The compound in its diluted form 5×10^−6 was taken in a microfuge tube and kept at −20 degree centigrade and seen in the frozen state under UV light.
The compound in its diluted form 5×10^−6 was taken in a microfuge tube and kept at −20 degree centigrade and seen in the frozen state under UV light.

ticks/fleas of dogs = assay: Veterinary remedy: killing ticks/fleas of dogs; type: in vivo, ticks and fleas
From the text: In yet another embodiment, the utility of the dye as a Veterinary remedy for ticks and fleas of pets is seen. The extract is used as veterinary remedy for killing ticks/fleas of dogs. 5×10^−6 concentration of dye in 1:200 dilutions killed ticks and fleas in less than 20 seconds. The extract was used as veterinary remedy for killing ticks/fleas of dogs. 5×10^−8 concentration of the purified compound cum dye killed ticks and fleas in less than 20 seconds.

E. coli (wild type) = assay: Anti-microbial test (zone of inhibition, filter paper disk on seeded agar); type: cell-based; conditions: 10 mg/ml of the sample soaked in filter paper disks, 37° C., 24 hours
Method: In yet another embodiment, anti-microbial test of the compound cum dye is done. […] As the marine dye is, a phenolic compound and phenolic compounds are generally having Anti-microbial activity, the anti-microbial assay was performed with this compound and the zone of inhibition was observed. E. coli (wild type) culture was grown overnight in MacConkey's broth 50 ml in a conical flask (100 ml). Antibiotic assay agar medium was prepared and sterilized. It was then brought to a temperature of 50 degree centigrade and 1 ml of E. coli (wild type) culture was added to it. The culture was mixed with antibiotic assay agar medium and was allowed to solidify. 10 mg/ml of the sample was prepared and soaked in filter paper disks. It was then placed upon the said antibiotic assay agar medium seeded with E. coli. It was then incubated at 37° C. in an incubator for 24 hours.

[2] = Biosurfactant nature (shaking of solutions); type: physicochemical; conditions: 0.001 mg–0.01 mg per ml solutions
ants = assay: Pesticidal effect (filter paper soaked in the dye); type: in vivo; conditions: filter paper soaked in the dye left on the workbench; next day full of dead ants
From the text: In yet another embodiment, the pesticidal effect of the compound cum dye is noticed. […] The filter paper soaked in the dye was left unattended on the workbench. Next day it was noticed full of dead ants. […] The filter paper soaked in the dye was left unattended on the workbench. Next day it was noticed full of dead ants.

[3] = Stability check of the dye (temperature, shelf life, light); type: physicochemical
Method: (§1) The pure hydrogen form of the compound is having the pH of 2.8. The salt form of the compound is stable up to 300° C. without the change of physical and chemical characters. The compound in aqueous solution in a very diluted form (5×10^−6 concentration) is pale yellow in color with the naked eye and the concentrated solution is reddish brown in color.
The compound retained its stability for about a year without any contamination or chemical decay.

[4] = Solubility of the compound; type: physicochemical; conditions: for solubility in organic solvents: ethanol, methanol, acetone
[5] = pH of the compound and pH sensitivity of emissions; type: physicochemical
Method: as §1
The dye has a pH of 2.8 and their spectral emissions are not affected at different pH range i.e. from pH 2.8–8.0.

For “Phenolic sulphated silicated polysaccharide [PSSP-1]”, the “fluorescence in the frozen state” value ([1]; diluted form 5×10^−6, −20 degree centigrade, under UV light) was “persisted without any deterioration”, the “fluorescence after freezing in liquid nitrogen” value ([1]; frozen in the liquid nitrogen) was “remained unaffected” and the “time to kill ticks and fleas” value (ticks/fleas of dogs; 5×10^−6 concentration of dye in 1:200 dilutions) was “less than 20 seconds”. For the same substance, the “time to kill ticks and fleas” value (ticks/fleas of dogs; 5×10^−8 concentration of the purified compound cum dye) was “less than 20 seconds”, the zone of inhibition (E. coli (wild type); listed as compound cum dye) was “zone of inhibition is observed” and the zone of inhibition (E. coli (wild type); listed as dye) was “Zone of inhibition surrounding the filter disk was observed”. For the same substance, the frothing on shaking [2] was “frothing was seen”, the frothing on shaking ([2]; listed as dye) was “frothing is seen” and the toxicity to insects (ants) was “toxic to insects”. The “photolysis after light treatment” value ([3]; exposure to light, listed as dye) was “does not undergo photolysis after exposure to light; also recorded: did not undergo photolysis after light treatment”, the “temperature up to which the dye is stable (no alteration of the spectral property)” value ([3]; heating, fluorescent spectral properties unchanged) was “up to 300 degree Centigrade” and the “duration of retained stability without contamination or chemical decay” value ([3]; room temperature) was “about a year”. For the same substance, the “persistence of fluorescence at the room temperature” value ([3]; room temperature) was “at least 1 year”, the “duration of retained stability without contamination or chemical decay” value ([3]; room temperature, listed as dye) was “above a year” and the “solubility in organic solvents” value [4] was “insoluble in the organic solvents including ethanol, methanol and acetone”. The “solubility in organic solvents” value ([4]; listed as dye) was “insoluble in the organic solvents like ethanol, methanol and acetone”, the solubility in water [4] was “soluble in water” and the solubility in water ([4]; listed as dye) was “more than the solubility characters of Fluorescein; also recorded: highly water-soluble”. The pH [5] was 2.8 and the “effect of pH on spectral emissions” value ([5]; pH 2.8–8.0) was “not affected”.
